pIC50: −log10 of the molar value.
Tests used:
[1] = molecular target: Human Factor XIa (Homo sapiens, UniProt P03951); assay: Inhibition of human coagulation factor XIa by absorptiometry (substrate S-2366); format: biochemical; details: 37° C., 20 min incubation, absorbance 405 nm; read-out: hFXIa IC50
Description: Example 50: Detection of the Biological Activity of the Compounds of the Present Invention on the Inhibition of Human Coagulation Factor XIa by Absorptiometry
Buffer: 145 mM NaCl, 5 mM KCl, 1 mg/mL PEG 8000, 30 mM HEPES, pH 7.4
10 mM test compound dissolved in 100% DMSO was diluted with 100% DMSO to […]; 98 μL of FXIa enzyme solution (77.7 ng/mL) was added to each well of a 96-well plate, and 98 μL of buffer was added to the blank wells. 2 μL of compounds of different concentrations were added, and the blank and control wells were added with DMSO instead. They were mixed with a shaker, and incubated at 37° C. for 20 minutes.
Finally, 100 μL of 800 μM substrate was added to each well, and its absorbance was measured at 405 nm.

[2] = tested on: human plasma; assay: Anticoagulant effect on human plasma in vitro (APTT determination); format: biochemical; details: for aPTT EC1.5×: concentration giving APTT of 1.5× blank control; for aPTT EC2×: concentration giving APTT of 2× blank control
Description: Example 51: Determination of the Anticoagulant Effect of the Compounds of the Present Invention on Human Plasma In Vitro
Plasma: Human blood was collected in a vacuum blood collection tube containing 3.2% sodium citrate (volume ratio 1:9), centrifuged at 3000 rpm for 10 min at room temperature, and the plasma was collected, divided into EP tubes, and stored at −80° C.
Reagents: APTT assay kit (Activated partial thromboplastin time assay kit, mindray), calcium chloride solution.
Instrument: coagulation meter (mindray, C2000-A)
The frozen human plasma in aliquots was thawed at room temperature and mixed well. 10 mM test compound dissolved in 100% DMSO was diluted with 100% DMSO to 1500, 750, 375, 187.5, 93.75, 46.88, 23.44, 11.72 μM. 98 μL of human plasma was added to a 1.5 mL EP tube, then 2 μL of compounds of different concentrations were added, and 2 μL of 100% DMSO was added for the blank group. They were incubated under a water bath at 37° C. for 10 min, and the samples were placed in the corresponding position of the coagulation analyzer to conduct APTT determination of the compounds.
Curve fitting was performed with GraphPad Prism software, and EC1.5× and EC2× values were calculated respectively, i.e., the concentrations of the compounds corresponding to the APTT of 1.5× and 2× blank control group.

[3] = Rat pharmacokinetics; format: in vivo, SD rats; parameters: AUC: concentration or dose not given beside the values; details: for AUC / Cmax / Tmax / clearance / half-life / Vd: male, SD, plasma; for Vd: read-out: Vss
From the text: (§1) Example 53: Investigation of the Pharmacokinetic Characteristics of the Compounds of the Present Invention
(§2) SD rats: male, 180-250 g, purchased from Guangdong Medical Laboratory Animal Center. Cynomolgus monkey: male, 4-6 kg, purchased from Guangzhou Chunsheng Biological Research Institute Co., Ltd. Beagle dog: male, 8-12 kg, developed in Kanglong Chemical (Ningbo) New Drug Technology Co., Ltd.
(§3) Reagents: DMSO (dimethyl sulfoxide), PEG-400 (polyethylene glycol 400), normal brine, heparin, acetonitrile, formic acid, and propranolol (internal standard) are commercially available.
(§4) Instrumentation: Thermo Fisher Scientific LC-MS (U300 UPLC, TSQ […] ULTRA triple quadrupole mass spectrometer).
(§5) The compound was weighed and dissolved in DMSO-PEG-400-physiological brine (5:60:35, v/v/v) system. After the rats/monkeys were administered intravenously or by gavage, 200 μL of venous blood was collected at 5 min (not collected when administered by gavage), 15 min, 30 min, 1 h, 2 h, 4 h, 6 h, 8 h, and 24 h in heparinized EP tubes, centrifuged at 12000 rpm for 2 min, and the plasma was frozen at −80° C. for testing. A certain amount of the test substance was precisely weighed and dissolved in DMSO to 1 mg/mL, which was used as a stock solution. An appropriate amount of compound stock solution was accurately pipetted and diluted with acetonitrile to prepare a standard series of solutions. 20 μL of each of the above standard series solutions were accurately pipetted, added with 180 μL of blank plasma, vortexed and mixed to prepare plasma samples equivalent to plasma concentrations of 1, 3, 10, 30, 100, 300, 1000, 3000 and 5000 ng/mL. Two-sample analysis was performed for each concentration to establish a standard curve. 20 μL of plasma was taken out, added with 200 μL of internal standard propranolol (5 ng/mL) in acetonitrile, vortexed and mixed. It was centrifuged at 4000 rpm for 5 min, and the supernatant was collected for LC-MS analysis. LC-MS detection conditions were as follows:
(§6) Chromatographic column: Thermo Scientific […] GOLD C-18 UPLC column, 100*2.1 mm, 1.9 μm.
(§7) Mobile phase: water (0.1% formic acid)-acetonitrile for gradient elution according to the table below.
(§8) After blood drug concentrations being detected by LC-MS, WinNonlin 6.1 software was used to calculate pharmacokinetic parameters by non-compartmental model method.

[4] = Cynomolgus monkey pharmacokinetics; format: in vivo; parameters: AUC: concentration or dose not given beside the values
From the text: as §1, §2, §3, §4, §5, §6, §7, §8

Chain of Human Factor XIa (P03951 388-625 limits assumed): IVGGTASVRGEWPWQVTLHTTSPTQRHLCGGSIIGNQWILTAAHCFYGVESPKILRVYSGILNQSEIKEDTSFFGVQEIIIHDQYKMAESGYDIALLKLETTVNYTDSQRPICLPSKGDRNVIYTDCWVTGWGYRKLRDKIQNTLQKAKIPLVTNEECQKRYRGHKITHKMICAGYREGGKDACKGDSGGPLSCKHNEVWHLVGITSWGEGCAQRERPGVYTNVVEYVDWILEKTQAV
Chain of Human Factor XIa (P03951 19-387 partner limits assumed): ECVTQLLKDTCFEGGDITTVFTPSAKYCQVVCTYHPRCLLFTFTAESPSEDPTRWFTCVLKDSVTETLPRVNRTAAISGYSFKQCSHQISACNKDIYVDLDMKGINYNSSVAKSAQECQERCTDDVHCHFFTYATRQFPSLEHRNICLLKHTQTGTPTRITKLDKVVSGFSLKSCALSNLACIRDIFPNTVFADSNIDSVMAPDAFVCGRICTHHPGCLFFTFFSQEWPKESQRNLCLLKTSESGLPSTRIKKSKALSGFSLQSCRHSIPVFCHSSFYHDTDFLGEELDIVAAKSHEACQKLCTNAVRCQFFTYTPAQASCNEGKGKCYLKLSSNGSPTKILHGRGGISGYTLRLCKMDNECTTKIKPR

| Structure (SMILES) | pIC50 [1] | F ([3]; ig) [%] | AUC ([3]; iv) [ng·h/mL] | Cmax ([3]; iv) [ng/mL] | Tmax ([3]; iv) [min] | clearance ([3]; iv) [mL/min/kg] | half-life ([3]; iv) [min] | Vd ([3]; iv) [L/kg] | Cmax ([3]; po, ig) [ng/mL] | Tmax ([3]; po, ig) [min] | AUC ([3]; po, ig) [ng·h/mL] | half-life ([3]; po, ig) [min] | aPTT EC1.5× [2] [µM] | aPTT EC2× [2] [µM] | other results |
| --- | --- | --- | --- | --- | --- | --- | --- | --- | --- | --- | --- | --- | --- | --- | --- |
| COc1nn([C@@H](Cc2ccccc2)C(=O)Nc2ccc3[nH]c(C(=O)O)cc3c2)c(=O)cc1-c1cc(Cl)ccc1C(C)=O [Example 15, (S)-5-(2-(4-(2-acetyl-5-chlorophenyl)-3-methoxy-6-oxopyridazin-1(6H)-yl)-3-phenylpropanamido)-1H-indol-2-formic acid] | 8.82 | 0.1 | 599 | 1840 | 4.98 | 29.1 | 28 | 0.471 | 3 | 30 | – | – | 0.531 | 1.749 | – |
| COCCOc1nn([C@@H](Cc2ccccc2)C(=O)Nc2ccc(C(=O)O)cc2)c(=O)cc1-c1cc(Cl)ccc1C(C)=O [Example 21, (S)-4-(2-(4-(2-acetyl-5-chlorophenyl)-3-(2-methoxyethoxy)-6-oxopyridazin-1(6H)-yl)-3-phenylpropanamido)benzoic acid] | 7.66 | 14.9 | 743 | 1600 | 5.99 | 25.3 | 29.5 | 0.277 | 166 | 90 | 608 | 139 | 0.777 | 3.848 | F ([4]; ig): 6.3%; AUC ([4]; male, plasma, iv): 455 ng·h/mL; Cmax ([4]; male, plasma, iv): 1010 ng/mL; Tmax ([4]; male, plasma, iv): 4.98 min; clearance ([4]; male, plasma, iv): 18.3 mL/min/kg; half-life ([4]; male, plasma, iv): 76.2 min; Vd ([4]; male, plasma, iv, read-out: Vss): 0.699 L/kg; AUC ([4]; male, plasma, po, ig): 357 ng·h/mL; Cmax ([4]; male, plasma, po, ig): 27.2 ng/mL; Tmax ([4]; male, plasma, po, ig): 90 min; half-life ([4]; male, plasma, po, ig): 684 min |
| COc1nn(C(Cc2ccc(NC(=O)C3CC3)cc2)C(=O)Nc2ccc(C(=O)O)cc2)c(=O)cc1-c1cc(Cl)ccc1C(C)=O (stereo not shown) [Example 33, 4-(2-(4-(2-acetyl-5-chlorophenyl)-3-methoxy-6-oxopyridazin-1(6H)-yl)-3-(4-(cyclopropaneformamido)phenyl)propanamido)benzoic acid] | 7.70 | – | – | – | – | – | – | – | – | – | – | – | 1.527 | 7.691 | – |
| COc1nn([C@@H](Cc2ccccc2)C(=O)Nc2ccc(C(=O)O)cc2)c(=O)cc1-c1cc(Cl)ccc1C(=O)CO [Example 35, (S)-4-(2-(4-(5-chloro-2-(2-hydroxyacetyl)phenyl)-3-methoxy-6-oxopyridazin-1(6H)-yl)-3-phenylpropanamido)benzoic acid] | 7.78 | – | – | – | – | – | – | – | – | – | – | – | 1.271 | 5.987 | – |
| COc1nn([C@@H](Cc2ccccc2)C(=O)Nc2ccc(C(=O)O)cc2)c(=O)cc1-c1cc(Cl)ccc1C(=O)C(F)F [Example 36, (S)-4-(2-(4-(5-chloro-2-(2,2-difluoroacetyl)phenyl)-3-methoxy-6-oxopyridazine-1(6H)-yl)-3-phenylpropanamido)benzoic acid] | 7.94 | – | – | – | – | – | – | – | – | – | – | – | 1.348 | 6.562 | – |
| COc1nn(C(Cc2ccc(NC(=O)C3CCC3)cc2)C(=O)Nc2ccc(C(=O)O)cc2)c(=O)cc1-c1cc(Cl)ccc1C(C)=O (stereo not shown) [Example 39, 4-(2-(4-(2-acetyl-5-chlorophenyl)-3-methoxy-6-oxopyridazin-1(6H)-yl)-3-(4-(cyclobutaneformamido)phenyl)propanamido)benzoic acid] | 7.79 | – | – | – | – | – | – | – | – | – | – | – | 1.638 | 6.859 | – |
| COc1nn(C(Cc2ccc(NC(=O)C3CCCC3)cc2)C(=O)Nc2ccc(C(=O)O)cc2)c(=O)cc1-c1cc(Cl)ccc1C(C)=O (stereo not shown) [Example 40, 4-(2-(4-(2-acetyl-5-chlorophenyl)-3-methoxy-6-oxopyridazin-1(6H)-yl)-3-(4-(cyclopentaneformamido)phenyl)propanamido)benzoic acid] | 7.86 | – | – | – | – | – | – | – | – | – | – | – | 2.636 | 14.94 | – |

Continued, in another order:

| pIC50 [1] | F ([3]; ig) [%] | AUC ([3]; iv) [ng·h/mL] | Cmax ([3]; iv) [ng/mL] | Tmax ([3]; iv) [min] | clearance ([3]; iv) [mL/min/kg] | half-life ([3]; iv) [min] | Vd ([3]; iv) [L/kg] | Cmax ([3]; po, ig) [ng/mL] | Tmax ([3]; po, ig) [min] | AUC ([3]; po, ig) [ng·h/mL] | half-life ([3]; po, ig) [min] | Structure (SMILES) | aPTT EC1.5× [2] [µM] | aPTT EC2× [2] [µM] | other results |
| --- | --- | --- | --- | --- | --- | --- | --- | --- | --- | --- | --- | --- | --- | --- | --- |
| 7.88 | 8.1 | 1090 | 2530 | 4.98 | 16.6 | 40.6 | 0.444 | 160 | 22.5 | 481 | 81 | CCOc1nn([C@@H](Cc2ccccc2)C(=O)Nc2ccc(C(=O)O)cc2)c(=O)cc1-c1cc(Cl)ccc1C(C)=O [Example 16, (S)-4-(2-(4-(2-acetyl-5-chlorophenyl)-3-ethoxy-6-oxopyridazin-1(6H)-yl)-3-phenylpropanamido)benzoic acid] | 1.005 | 4.768 | – |
| 7.64 | 3.9 | 457 | 1270 | 4.98 | 36.5 | 168 | 1.14 | 43.7 | 30 | 93.5 | 104 | CC(=O)c1ccc(Cl)cc1-c1cc(=O)n([C@@H](Cc2ccccc2)C(=O)Nc2ccc(C(=O)O)cc2)nc1OC1COC1 [Example 24, (S)-4-(2-(4-(2-acetyl-5-chlorophenyl)-6-oxo-3-(oxetan-3-yloxy)-pyridazine-1(6H)-yl)-3-phenylpropanamido)benzoic acid] | 0.769 | 2.785 | – |
| 7.73 | 8.6 | 889 | 1780 | 4.98 | 22.6 | 48 | 0.915 | 125 | 37.5 | 461 | 158 | CC(=O)c1ccc(Cl)cc1-c1cc(=O)n([C@@H](Cc2ccccc2)C(=O)Nc2ccc(C(=O)O)cc2)nc1OC(F)F [Example 25, (S)-4-(2-(4-(2-acetyl-5-chlorophenyl)-3-(difluoromethoxy)-6-oxopyridazin-1(6H)-yl)-3-phenylpropanamido)benzoic acid] | 1.782 | 9.452 | – |

— patent US20230027295A1, “FXIA INHIBITORS AND PREPARATION METHOD THEREFOR AND PHARMACEUTICAL USE THEREOF” (Shenzhen Salubris Pharmaceuticals Co., Ltd., priority 2019, published 2023)
